Among the test systems are SF-268 CNS; SN12C renal; HL-60(TB) leukemia; HT29 colon; HCT-15 colon; SW-620 colon; SF-295 CNS; OVCAR-3 ovarian; 786-0 renal; CAKI-1 renal; EKVX NSCLC; BT-549 breast.
Holding throughout (experiment): DTP human tumour cell line panel, 48 h

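96-well plates; 48 h exposure; 5 concentrations. Endpoints by linear interpolation between flanking doses. Not reached: highest tested concentration assigned. Definition used: TGI = concentration required for complete inhibition of growth.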

`Clc1ccc(C[P+](c2ccccc2)(c2ccccc2)c2ccccc2)cc1Cl`: the TGI was 11.3 µM with SF-268 CNS; 15.3 µM in the test on SN12C renal; 14.9 µM in the test on HL-60(TB) leukemia; 11.9 µM in the test on HT29 colon; 44.5 µM in the test with HCT-15 colon; 12.7 µM in the test with SW-620 colon. For the same compound, the TGI in the test with SF-295 CNS stood at 22.2 µM; in the test with OVCAR-3 ovarian it was 6.74 µM; in the test with 786-0 renal, 17 µM; in the test with CAKI-1 renal, 11 µM.
On to `C/C(N=NS(=O)(=O)c1ccc([N+](=O)[O-])cc1)=C1\C=CC=CN1O`, for which the TGI in the test with SF-268 CNS, in the test on EKVX NSCLC, in the test on SN12C renal, in the test on HL-60(TB) leukemia, in the test on HT29 colon and in the test on HCT-15 colon was more than 100 µM each time. Besides, the TGI with SW-620 colon, in the test with SF-295 CNS, in the test with OVCAR-3 ovarian, in the test with 786-0 renal and in the test on CAKI-1 renal was more than 100 µM throughout.
Take `CC1OC2OC3C(OCC(O)C3O)OC(=O)[C@]34CCC(C)(C)CC3C3=CCC5[C@@]6(C)C[C@H](O)[C@H](OC7OC(CO)C(O)C(O)C7OC7OCC(OC(=O)CC(C)(O)CC(=O)OC1C(O)C2O)C(O)C7O)[C@@](C)(CO)C6CC[C@@]5(C)[C@]3(C)CC4` (stereo partly specified): the total growth inhibition concentration (TGI) was found to be 9.2 µM with SF-268 CNS; 21.1 µM in the test on SN12C renal; 4.11 µM with HL-60(TB) leukemia; 10.4 µM in the test on HT29 colon; 19.2 µM in the test on HCT-15 colon; 19 µM in the test on SW-620 colon. Moreover, the TGI was 12.4 µM in the test on SF-295 CNS, 20.7 µM in the test on OVCAR-3 ovarian, 25.6 µM with 786-0 renal and 24.8 µM with BT-549 breast.
For the compound `C[C@@H]1CC(=O)C[C@@H]2CC[C@H]3[C@@H]4CC[C@H](OC(=O)c5cccc6cc7ccccc7nc56)[C@H]4CC[C@@H]3[C@H]21`, the TGI is 20.9 µM in the test on SF-268 CNS; 34.7 µM with EKVX NSCLC; 33.1 µM in the test on SN12C renal; 29.3 µM in the test on HT29 colon; 36.6 µM with HCT-15 colon; 44.2 µM in the test with SW-620 colon. Also, the TGI with SF-295 CNS was determined as 77.6 µM; with OVCAR-3 ovarian, 29.8 µM; with 786-0 renal, 23.5 µM; with BT-549 breast, 59.1 µM; in the test on CAKI-1 renal, 33.7 µM.
As for `COc1cc2c(/C=C3/C(=O)Nc4ccc(Cl)cc43)c(Cl)[nH]c2cc1C`, the TGI was 43.7 µM in the test with SF-268 CNS; 2.67 µM with SN12C renal; 13.6 µM with HL-60(TB) leukemia; 7.54 µM in the test on HT29 colon; 4.7 µM in the test with HCT-15 colon; 19.7 µM in the test on SW-620 colon. Also, the TGI was found to be 10.5 µM with SF-295 CNS; 3.14 µM with OVCAR-3 ovarian; 15.4 µM in the test with 786-0 renal; 1.08 µM in the test on BT-549 breast; 14.8 µM in the test with CAKI-1 renal.
`C/C(=N\Nc1nc2ccccc2s1)c1cc2ccccc2cn1`: the TGI is more than 100 µM with SF-268 CNS; 69.4 µM in the test with EKVX NSCLC; 30.8 µM with SN12C renal; 11 µM with HT29 colon; 34.3 µM in the test with HCT-15 colon; more than 100 µM with SW-620 colon. In addition, the total growth inhibition concentration (TGI) with SF-295 CNS came out at 19.3 µM; with OVCAR-3 ovarian, 6.96 µM; in the test with 786-0 renal, 9.35 µM; with BT-549 breast, 45.8 µM; in the test on CAKI-1 renal it was 17.6 µM.
For `CCn1c2ccccc2c2c(-c3ccccc3)cc3c(c21)C(=O)N(c1ccccc1)C3=O`, the TGI in the test on SF-268 CNS, in the test with EKVX NSCLC, with SN12C renal, in the test with HL-60(TB) leukemia, in the test with HCT-15 colon and in the test with SW-620 colon was more than 100 µM each time. Moreover, the TGI in the test with SF-295 CNS, in the test on OVCAR-3 ovarian, with 786-0 renal and with CAKI-1 renal was more than 100 µM throughout.
`OC1COC2CC(Nc3ccccn3)OC12` (stereo unspecified): the TGI in the test on SF-268 CNS, in the test with EKVX NSCLC, in the test with SN12C renal, in the test on HT29 colon, in the test with HCT-15 colon and in the test with SW-620 colon was more than 100 µM throughout. The TGI with SF-295 CNS, in the test on OVCAR-3 ovarian, in the test with 786-0 renal, with BT-549 breast and in the test with CAKI-1 renal was more than 100 µM in each case.
Regarding `O=c1[nH]c(NCc2ccc(Cl)cc2)nc2nc[nH]c12`, the TGI in the test on SF-268 CNS, with EKVX NSCLC, with SN12C renal, in the test with HT29 colon, with HCT-15 colon and in the test on SW-620 colon was more than 100 µM in each case. Also, the TGI in the test on SF-295 CNS, with OVCAR-3 ovarian, with 786-0 renal, in the test with BT-549 breast and in the test with CAKI-1 renal was more than 100 µM each time.
As to `CC(C)C1=CC(=O)[C@@](C)(C2[C@H](O)C[C@@]3(C)[C@@H]4CC=C5[C@@H](CC[C@@H](OC6OCC(O)C(O)C6OC6OC(C)C(O)C(O)C6O)C5(C)C)[C@]4(C)C(=O)C[C@]23C)O1` (stereo partly specified), the TGI in the test on SF-268 CNS, in the test on EKVX NSCLC, in the test with SN12C renal, in the test on HT29 colon, with HCT-15 colon and in the test on SW-620 colon was more than 100 µM each time. Moreover, the total growth inhibition concentration (TGI) in the test on SF-295 CNS, with OVCAR-3 ovarian, in the test on 786-0 renal, in the test on BT-549 breast and in the test on CAKI-1 renal was more than 100 µM in each case.
Consider `COc1cc2c(cc1OC)C(=O)/C(=C/c1cc(C)cc(C)c1)C2`, for which the TGI in the test with SF-268 CNS is more than 100 µM; in the test on EKVX NSCLC, more than 100 µM; in the test with SN12C renal it was 32.6 µM; in the test with HT29 colon, 0.835 µM; in the test with HCT-15 colon, more than 47.8 µM; in the test with SW-620 colon it was more than 90.7 µM. Also, the total growth inhibition concentration (TGI) was 1.04 µM in the test on OVCAR-3 ovarian, more than 44.6 µM with 786-0 renal and 60.4 µM in the test with BT-549 breast.
`CC1=C(C)CC2(C=C(C(C)(C)C)C(=O)C(C(C)(C)C)=C2)SC1`: the TGI in the test with SF-268 CNS turned out to be 46.6 µM; in the test with EKVX NSCLC it was 36.9 µM; in the test with SN12C renal, 33.2 µM; with HL-60(TB) leukemia it was 64.6 µM; with HT29 colon, 43 µM; in the test on SW-620 colon it was 41.1 µM. Further, the TGI was 31.4 µM in the test with SF-295 CNS, 36.1 µM with OVCAR-3 ovarian, 36 µM in the test on 786-0 renal and 54.9 µM in the test with CAKI-1 renal.

As a reminder, the TGI is the concentration giving total growth inhibition. Read a high TGI as lower sensitivity of the cells.

(Values after PubChem BioAssay (NCI).)
